Reference: patent US20060040884A1, “Antisense oligonucleotides directed to genes regulated by trapoxin-induced HDAC inhibition” (priority 2001, published 2006)
Several values for one entry are separate records, joined by “and”; a condition that tells them apart may be missing. Identical values can stand only once. Marks after values point to notes of the source that are not given here. Square brackets hold non-standard residues; d marks the D form. Peptide text beside a SMILES is read from it. ξ: configuration not given here. Aoe(9ξ) = N[C@@H](CCCCCC(=O)C1CO1)C(=O)O; dPip = O=C(O)[C@H]1CCCCN1

System: H1299 cells
Test: Microarray expression profiling of TPX- vs DMSO-treated H1299 cells (Affymetrix HU6800 and Incyte UniGem V arrays)
Type: cell-based, human
Settings: 30 nM vs DMSO
Description: Cell Culture and Drug Treatments. […] H1299 cells at 60 to 80% confluence are treated with 30 nM TPX dissolved in dimethyl sulphoxide for a final concentration of 0.1% Me2SO in cell culture medium or 0.1% Me2SO for 0, 6, 12, and 18 h.
Incyte cDNA arrays. H1299 cells are treated with 30 nM TPX dissolved in Me2SO or Me2SO for 0, 6, 12 and 18 h. Final Me2SO concentrations were 0.1% in cell culture medium. Total RNA is extracted using TRIZOL reagent (Life Technologies, Rockville, Md.) and purified using RNAeasy reagents (Qiagen, Valencia Calif.). Poly (A)^+ RNA (mRNA) is prepared from total RNA using Oligotex columns (Qiagen, Valencia, Calif.) and the procedure is repeated twice to minimize contamination with ribosomal RNA. The mRNA concentrations are determined using RiboGreen RNA Quantitation kit (Molecular Probes, Eugene, Oreg.) and equal amounts of mRNA from each sample is used in labeling reactions that are performed by Synteni Division of Incyte Genomics, Inc. (Palo Alto, Calif.). Complementary DNAs are prepared by […] and labeled with Cy3-deoxyuridine triphosphate (Cy3) or Cy5-deoxyuridine triphosphate (Cy5) fluorescent nucleotides. cDNA samples from cells that are treated with Me2SO are labeled with Cy3 and the TPX-treated samples are labeled with Cy5. Replicates were labeled with reversed fluorescent labels to accommodate biases attributable to labeling. The Cy3 and Cy5 samples from each time point are combined and hybridized to UniGem […] arrays (Iyer, V. R., et al., (1999) Science 283, 83-87). This array contains cDNAs that represent approximately 7000 human genes.
Affymetrix oligonucleotide arrays. Total RNA and Poly (A)^+ RNA is isolated from TPX or Me2SO-treated H1299 cells essentially as it was for Incyte cDNA arrays. Total RNA is isolated from p21^waf1-10 cells that are grown in the presence or in the absence of tetracycline for 6, 12 and 48 h. 1st strand cDNA synthesis is performed using Superscript Choice System (Life Technologies) and a T7prFB-t30 primer, 5′-AAACGACGGCACA […]-t30-3′ (SEQ ID NO 1). Biotinylated complementary […] is made using the T7 Megascript system (Ambion, Austin, Tex.), substituting NTP labeling-mix containing biotinylated CTP and UTP. The labeled, purified cDNA is fragmented into <50 bp pieces at 95° C. in MgCl2 buffer to-increase the efficiency of hybridization to 20-mer oligos on the arrays. These labeled fragments are hybridized to HU6800 arrays (Affymetrix, Santa Clara, Calif.) as described previously (Lockhart, D. J., et al., (1996) Nat. Biotechnol. 14, 1675-1680; Alon, U. et al., (1999) Proc. Natl. Acad. Sci. U.S.A. 96, 6745-6750). This array represents approximately 7000 human genes. Briefly, samples are hybridized for 16 h at 45° C. with constant rotation at 60 rpm. The arrays are washed and stained using an Affymetrix fluidics station. The stain included streptavidin-phycoerythrin (10 μg/ml; Molecular Probes, Eugene, Oreg.) and biotinylated goat anti-streptavidin (3 μg/ml; Vector Laboratories, Burlingame, Calif.).
Imaging and Data Analysis. Affymetrix arrays are scanned with a HP argon-ion laser confocal microscope, with a 488 nm […] and detection at 570 nm. Affymetrix fold changes are calculated using GeneChip 3.3 software (Affymetrix). Incyte Pharmaceutical Inc. uses a laser confocal microscope to determine the fluorescence intensities from Incyte cDNA arrays. The fluorescent images (Cy3 and Cy5) from the Incyte cDNA arrays are normalized to total fluorescence from each channel for all genes for labeling efficiency differences and considered the normalized data is used for calculation of the gene expression ratios.

O=C(CCCCC[C@@H]1NC(=O)[C@H]2CCCCN2C(=O)[C@H](Cc2ccccc2)NC(=O)[C@H](Cc2ccccc2)NC1=O)C1CO1 (stereo partly drawn) [TPX, Trapoxin A] (cyclo(FF[dPip][Aoe(9ξ)]))
Fold change, AB011146 KIAA0574, similar to an RNA binding protein (6 h): NC (<2 fold change in expression level (NC)) | Fold change, AF012086 RAN-binding protein 2-like (6 h): NC (<2 fold change in expression level (NC)) | Fold change, AF052578 RAN [RNA processing] (6 h): NC (<2 fold change in expression level (NC)) | Fold change, AF052578 RAN [Small GTP-ases] (6 h): NC (<2 fold change in expression level (NC)) | Fold change, AF109161 p35srj [Stress] (6 h): NC (<2 fold change in expression level (NC)) | Fold change, AF109161 p35srj [Transformation and TKRs] (6 h): NC (<2 fold change in expression level (NC)) | Fold change, AL047358 Insulin-induced gene 1 (6 h): 2.2 fold and 2.8 fold | Fold change, AL047358 Spermidine/spermine N1-acetyltransferase (6 h): NC (<2 fold change in expression level (NC)) | Fold change, AL720570 Hepatoma-derived growth factor (6 h): NC (<2 fold change in expression level (NC)) | Fold change, D00596 Thymidylate synthetase (6 h): NC (<2 fold change in expression level (NC)) | Fold change, D16105 Leukocyte receptor tyrosine kinase (6 h): NC (<2 fold change in expression level (NC)) | Fold change, D50920 KIAA0130, thyroid receptor interacting protein (6 h): NC (<2 fold change in expression level (NC)) | Fold change, D85429 Hsp 40 (6 h): 4.0^8 fold and 3.9^8 fold | Fold change, J03909 γ-IFN-inducible, IP-30 (6 h): 3.9^5 fold and 3.9^2 fold | Fold change, L03840 Fibroblast growth factor receptor (6 h): 2.4* fold and 2.7* fold | Fold change, L16991 Thymidylate kinase (6 h): NC (<2 fold change in expression level (NC)) | Fold change, L20010 Host cell factor (6 h): NC (<2 fold change in expression level (NC)) | Fold change, L32976 Mixed lineage kinase-3 (6 h): NC (<2 fold change in expression level (NC)) | Fold change, M12174 RhoB (6 h): 6.2^5 fold and 9.0^8 fold | Fold change, M55153 Transglutaminase 2 (6 h): NC (<2 fold change in expression level (NC)) | Fold change, M58286 TNF Receptor (6 h): NC (<2 fold change in expression level (NC)) | Fold change, M59828 Hsp 70 (6 h): 3.5 fold and 4.1 fold | Fold change, M76125 Tyrosine kinase receptor (TKR) axl (6 h): NC (<2 fold change in expression level (NC)) | Fold change, M80244 Human E16 (6 h): NC (<2 fold change in expression level (NC)) | Fold change, M80899 AHNAK nucleoprotein/desmoykin (6 h): NC (<2 fold change in expression level (NC)) | Fold change, M86406 Actinin (6 h): NC (<2 fold change in expression level (NC)) | Fold change, N33982 c-Yes-associated protein (6 h): NC (<2 fold change in expression level (NC)) | Fold change, NM006603 Stromal antigen 2 (6 h): NC (<2 fold change in expression level (NC)) | Fold change, U03057 Actin-bundling protein (6 h): NC (<2 fold change in expression level (NC)) | Fold change, U09578 MAKAP kinase (3 pk) (6 h): NC (<2 fold change in expression level (NC)) | Fold change, U09579 p21waf1 (1st line) (6 h): 6.1* fold and 6.6* fold | Fold change, U09579 p21waf1 (2nd line) (6 h): 2.3 fold and 3.3 fold | Fold change, U09937 Upa receptor (UpaR) (1st line) (6 h): NC (<2 fold change in expression level (NC)) | Fold change, U14750 Connective tissue growth factor (6 h): 3.1 fold and 3.6 fold | Fold change, U15782 Cleavage stimulation factor 3 (6 h): NC (<2 fold change in expression level (NC)) | Fold change, U25804 Caspase-4 (6 h): NC (<2 fold change in expression level (NC)) | Fold change, U28749 HMGI-C (2nd line) (6 h): NC (<2 fold change in expression level (NC)) | Fold change, U28749 High mobility group phosphoprotein I-C (HMGI-C) (1st line) (6 h): NC (<2 fold change in expression level (NC)) | Fold change, U32519 GAP SH3 binding protein (6 h): 5.7^8 fold and 5.8^8 fold | Fold change, U35113 Metastasis-associated 1, MTA-1 [Metastasis and invasion] (6 h): NC (<2 fold change in expression level (NC)) | Fold change, U35113 Metastasis-associated protein 1 (MTA-1) [Chromatin remodeling] (6 h): NC (<2 fold change in expression level (NC)) | Fold change, U48795 Cathelicidin antimicrobial peptide (6 h): NC (<2 fold change in expression level (NC)) | Fold change, U56833 VBP-1 (6 h): NC (<2 fold change in expression level (NC)) | Fold change, U77413 O-linked-N-acetylglucosamine transferase (6 h): NC (<2 fold change in expression level (NC)) | Fold change, U84214 Defender against cell death 1 (6 h): NC (<2 fold change in expression level (NC)) | Fold change, X03473 Histone H1 (0) [Chromatin remodeling] (6 h): 6.8^4 fold and 10.8^8 fold | Fold change, X03473 Histone H1 (0) [Differentiation] (6 h): 6.8^4 fold and 10.8^8 fold | Fold change, X04429 Plasminogen activator inhibitor 1 (6 h): NC (<2 fold change in expression level (NC)) | Fold change, X16396 NAD-dependent methylene teterahydrofolate dehydrogenase-methylenyltetrahydrofolate cyclohydrolase (6 h): NC (<2 fold change in expression level (NC)) | Fold change, X16665 Homeobox B2 (Hoxb2) (6 h): NC (<2 fold change in expression level (NC)) | Fold change, X37546 Inhibitor of apoptisis homolog B (6 h): NC (<2 fold change in expression level (NC)) | Fold change, X53586 Integrin α-6 (6 h): NC (<2 fold change in expression level (NC)) | Fold change, X55740 5′-nucleotidase (6 h): NC (<2 fold change in expression level (NC)) | Fold change, X59798 Cyclin D1 (6 h): NC (<2 fold change in expression level (NC)) | Fold change, X66029 TKR axl (6 h): NC (<2 fold change in expression level (NC)) | Fold change, X71874 MECL-1 (6 h): NC (<2 fold change in expression level (NC)) | Fold change, X78687 G9 sialidase (6 h): 3.0^8 fold and 3.4^8 fold | Fold change, X89713 Death-associated protein-5 (6 h): NC (<2 fold change in expression level (NC)) | Fold change, A1581499 Apoptosis inhibitor 2 (12 h): NC (<2 fold change in expression level (NC)) | Fold change, AB011146 KIAA0574, similar to an RNA binding protein (12 h): 2.7 fold | Fold change, AF012086 RAN-binding protein 2-like (12 h): 9.1 fold and 8.3 fold | Fold change, AF052578 RAN [RNA processing] (12 h): NC (<2 fold change in expression level (NC)) | Fold change, AF052578 RAN [Small GTP-ases] (12 h): 2.9 fold and 2.0 fold | Fold change, AF109161 p35srj [Stress] (12 h): 3.5 fold and 2.4 fold | Fold change, AF109161 p35srj [Transformation and TKRs] (12 h): 3.5 fold and 2.4 fold | Fold change, AL047358 Insulin-induced gene 1 (12 h): 7.9 fold and 6.4 fold | Fold change, AL047358 Spermidine/spermine N1-acetyltransferase (12 h): 3.8 fold and 2.3 fold | Fold change, AL720570 Hepatoma-derived growth factor (12 h): NC (<2 fold change in expression level (NC)) | Fold change, AW072424 5′-nucleotidase (12 h): −3.7 fold | Fold change, D00596 Thymidylate synthetase (12 h): NC (<2 fold change in expression level (NC)) | Fold change, D16105 Leukocyte receptor tyrosine kinase (12 h): NC (<2 fold change in expression level (NC)) | Fold change, D50920 KIAA0130, thyroid receptor interacting protein (12 h): NC (<2 fold change in expression level (NC))
